According to US20080241274A1 (ZIOPHARM Oncology, Inc., priority 2006, published 2008):
Where two headings read alike, the source gives them in different places. Values belong to the compound of their own block, whether it stands above or below them.

How the values were obtained:
[1] = tested on: MCF-7 ER-positive breast cancer; test: Monolayer assay (DNA content by propidium iodide), single agents and indibulin combinations, MCF-7; assay type: cell-based, human; conditions: for IC50: Homo sapiens; for CI (e), coefficient of interaction under optimal experimental concentrations: named drug in combination with indibulin, mean of quadruplicate
Description: (§1) The monolayer assay determines the in vitro antitumor activity of test compounds and their capacity to inhibit survival and proliferation of established tumor cell lines. These effects can be determined by establishing the number of viable cells based on measuring the DNA content using propidium iodide. […] Between 5,000 and 10,000 cells were seeded in 96 well plates on Day 0 and the compounds were added 1 day later and incubated for 4 days. The activity was assessed by their IC50 and IC70 values.
(§2) Growth IC50 and IC70 values (Table 2) were determined using XLfit software package, and used to set the concentration ranges and drug ratios for the synergy detection part of the study.
(§3) Chou-Talalay median effect method was used to quantitatively characterize drug-drug interaction [Chou T. C. Theoretical basis, experimental design, and computerized simulation of synergism and antagonism in drug combination studies. Pharmacol Rev. 2006 September; 58(3):621-81]. […] Mixtures of the drugs at multiples of their single agent IC50's were prepared, as well as serial dilutions of the mixture. Additionally, single agent dose response was determined for the same concentration ranges as used for combination study.
(§4) The coefficient of interaction (CI(IC50)) at IC50 and coefficient of interaction under optimal experimental concentrations (CI(e)) were determined using CalcuSyn software package (Table 3, tests were performed in quadruplicate, mean values reported). Commonly, experimental values of CI<0.8 are considered synergistic, 0.8<CI<1.2 additive.

A549 NSCLC = test: Monolayer assay (DNA content by propidium iodide), single agents and indibulin combinations, A549; assay type: cell-based, human; conditions: for CI (e), coefficient of interaction under optimal experimental concentrations: named drug in combination with indibulin, mean of quadruplicate; for IC50: Homo sapiens
Description: as §1, §2, §3, §4

SKOV3 (ovarian) = test: Monolayer assay (DNA content by propidium iodide), single agents and indibulin combinations, SKOV3; assay type: cell-based, human; conditions: for Single Agent IC50: SKOV3, single agent (combination study); for Combination IC50 / CI (e), coefficient of interaction under optimal experimental concentrations: SKOV3; for CI (e), coefficient of interaction under optimal experimental concentrations: named drug in combination with indibulin, mean of quadruplicate; for IC50: Homo sapiens
Description: as §1, §2, §3, §4

PC3 (prostate) = test: Monolayer assay (DNA content by propidium iodide), single agents and indibulin combinations, PC3; assay type: cell-based, human; conditions: for IC50: Homo sapiens, read-out: Single Agent IC50; for Combination IC50 / CI (e), coefficient of interaction under optimal experimental concentrations: PC3; for Combination IC50: concentration of the named drug in the combination; for CI (e), coefficient of interaction under optimal experimental concentrations: named drug in combination with indibulin, mean of quadruplicate
Description: as §1, §2, §3, §4

[2] = tested on: biotin-labeled calf brain tubulin; test: Competition with 3H-indibulin for tubulin binding (SPA beads); parameters: species or system bovine; conditions: 200-fold molar excess of cold competitor; FIG. 7
Description: (§5) Where indicated, a 200-fold molar excess of cold competitor was added. Tubulin heterodimers were then precipitated with streptavidin-coated SPA beads and bound radioactivity was determined. “No tubulin” indicates non-specifically bound radioactivity measured in the absence of biotin-labeled tubulin.

[3] = tested on: biotin-labeled calf brain tubulin; test: Competition with 3H-colchicine for tubulin binding (SPA beads); parameters: species or system bovine; conditions: 200-fold molar excess of cold competitor; FIG. 8
Description: as §5

[4] = tested on: axonal microtubules of rat pheochromocytoma (PC12) cells; test: Axonal microtubule immunostaining in NGF-differentiated PC12 cells; assay type: cell-based; conditions: PC12 neurites induced by NGF 5-6 days; 24 h treatment at 2×IC50 concentration
Source text: The outgrowth of neurites of PCl2 was induced by NGF for 5-6 days. […] Microtubules within the neurites, were visualized by immunostaining with an antibody recognizing acetylated (axonal) tubulin, leaving the cell bodies unstained.

[5] = tested on: adult bovine brain tubulin; test: Tubulin polymerization, adult bovine brain tubulin; assay type: biochemical; conditions: calf and adult bovine brain tubulin compared
Source text: Tubulin from neuronal tissue is post-translationally modified and the degree of modification increases during neuronal development. Calf brain neuronal tubulin and tubulin from other tissues differ in their post-translational modifications from that of adult bovine brain. […] Tubulin polymerization is given as % over DMSO control.

[6] = MCF7, MCF7, single agent (combination study), read-out: Single Agent IC50
[7] = MCF7, single agent (combination study)
[8] = MCF7, indibulin + 5-FU (5FU:indibulin 10.9:1), concentration of the named drug in the combination
[9] = A549, single agent (combination study)
[10] = A549, indibulin + carboplatin (carboplatin:indibulin 303:1), concentration of the named drug in the combination
[11] = A549, 96 h, A549, single agent, 4 days incubation, read-out: Growth IC50
[12] = MCF7, 96 h, MCF7, single agent, 4 days incubation, read-out: Growth IC50
[13] = MCF7, indibulin + paclitaxel (paclitaxel:indibulin 0.27:1), concentration of the named drug in the combination
[14] = MCF7, indibulin + vinorelbine (vinorelbine:indibulin 0.016:1), concentration of the named drug in the combination

SMILES: N.N.O=C([O-])C1(C(=O)[O-])CCC1.[Pt+2] [Carboplatin]
Single Agent IC50 (A549 NSCLC; [9]): 5,827 ng/mL
Single Agent IC70 (A549 NSCLC; [9]): 15365 ng/mL
Combination IC50 (A549 NSCLC; [10]): 3481 ng/mL
Combination IC70 (A549 NSCLC; [10]): 8044 ng/mL
CI (e), coefficient of interaction under optimal experimental concentrations (A549 NSCLC; A549): 0.72
Single Agent IC50 (SKOV3 (ovarian)): 12,026 ng/mL
Combination IC50 (SKOV3 (ovarian); indibulin + carboplatin, concentration of the named drug in the combination): 12,881 ng/mL
CI (e), coefficient of interaction under optimal experimental concentrations (SKOV3 (ovarian)): 0.73

SMILES: N.N.[Cl][Pt][Cl] [Cisplatin]
Single Agent IC50 (SKOV3 (ovarian)): 773 ng/mL
Combination IC50 (SKOV3 (ovarian); indibulin + cisplatin, concentration of the named drug in the combination): 780 ng/mL
CI (e), coefficient of interaction under optimal experimental concentrations (SKOV3 (ovarian)): 0.77

SMILES: C[C@]12CC[C@@H]3c4ccc(OC(=O)N(CCCl)CCCl)cc4CC[C@H]3[C@@H]1CC[C@@H]2O [Estramustine]
IC50 (PC3 (prostate)): 29700 ng/mL
Combination IC50 (PC3 (prostate); indibulin + estramustine): 26,466 ng/mL
CI (e), coefficient of interaction under optimal experimental concentrations (PC3 (prostate)): 0.76

SMILES: COc1cc([C@@H]2c3cc4c(cc3[C@@H](O[C@@H]3O[C@@H]5CO[C@@H](C)O[C@H]5[C@H](O)[C@H]3O)[C@H]3COC(=O)[C@H]23)OCO4)cc(OC)c1O [Etoposide]
Single Agent IC60 (A549 NSCLC; [9]): 177 ng/mL
Combination IC60 (A549 NSCLC; A549, indibulin + etoposide, concentration of the named drug in the combination): 94 ng/mL
CI (e), coefficient of interaction under optimal experimental concentrations (A549 NSCLC; A549): 1.05
IC50 (A549 NSCLC; [11]): 52 ng/mL

SMILES: CC/C(=C(\c1ccccc1)c1ccc(OCCN(C)C)cc1)c1ccccc1 [Tamoxifen]
Single Agent IC60 [1, 7]: 3166 ng/mL
Combination IC60 ([1]; MCF7, indibulin + tamoxifen (tamoxifen:indibulin 100:1), concentration of the named drug in the combination): 641 ng/mL
CI (e), coefficient of interaction under optimal experimental concentrations ([1]; MCF7): 0.67

SMILES: COc1cc2c(c(OC)c1OC)-c1ccc(OC)c(=O)cc1[C@@H](NC(C)=O)CC2 [colchicine]
Effect on axonal microtubules (acetylated tubulin immunostaining) [4]: microtubules were partially disrupted

SMILES: COC(=O)Nc1nc2ccc(C(=O)c3cccs3)cc2[nH]1 [nocodazole]
Competition with 3H-indibulin for tubulin binding [2]: compete
Inhibition of 3H-colchicine binding (in words) [3]: completely inhibit binding

SMILES: COc1cc([C@@H]2c3cc4c(cc3[C@H](O)[C@H]3COC(=O)[C@H]23)OCO4)cc(OC)c1OC [podophyllotoxin]
Competition with 3H-indibulin for tubulin binding [2]: compete
Inhibition of 3H-colchicine binding (in words) [3]: completely inhibit binding

SMILES: CC[C@]1(O)C[C@H]2CN(CCc3c([nH]c4ccccc34)[C@@](C(=O)OC)(c3cc4c(cc3OC)N(C=O)[C@H]3[C@@](O)(C(=O)OC)[C@H](OC(C)=O)[C@]5(CC)C=CCN6CC[C@]43[C@@H]65)C2)C1 [vincristine]
Inhibition of calf versus bovine brain tubulin polymerization (in words) [5]: inhibited both, calf and bovine brain tubulin polymerization to a similar extent

Now from value to compound, other results behind:

IC50 [1, 6]: 92 ng/mL
Combination IC50 [1, 8]: 57 ng/mL
SMILES: O=c1[nH]cc(F)c(=O)[nH]1 [5-FU, 5-Fluorouracil]
Single Agent IC60 [1, 7]: 84 ng/mL
Combination IC60 [1, 8]: 30 ng/mL
CI (e), coefficient of interaction under optimal experimental concentrations ([1]; MCF7): 0.46

IC50 [1, 6]: 7 ng/mL
Combination IC50 ([1]; MCF7, indibulin + doxorubicin, concentration of the named drug in the combination): 3 ng/mL
SMILES: COc1cccc2c1C(=O)c1c(O)c3c(c(O)c1C2=O)C[C@@](O)(C(=O)CO)C[C@@H]3O[C@H]1C[C@H](N)[C@H](O)[C@H](C)O1 [Doxorubicin]
CI (e), coefficient of interaction under optimal experimental concentrations ([1]; MCF7): 0.64

IC50 (A549 NSCLC; [11]): 7860 ng/mL
IC50 (A549 NSCLC; A549, A549, single agent (combination study), read-out: Single Agent IC50): 38500 ng/mL
IC50 (A549 NSCLC; A549, A549, indibulin + erlotinib (erlotinib:indibulin 208:1), concentration of the named drug in the combination, read-out: Combination IC50): 6200 ng/mL
SMILES: C#Cc1cccc(Nc2ncnc3cc(OCCOC)c(OCCOC)cc23)c1 [Erlotinib]
Single Agent IC40 (A549 NSCLC; [9]): 20315 ng/mL
Combination IC40 (A549 NSCLC; A549, indibulin + erlotinib (erlotinib:indibulin 208:1), concentration of the named drug in the combination): 4424 ng/mL
CI (e), coefficient of interaction under optimal experimental concentrations (A549 NSCLC; A549): 0.32

IC50 (A549 NSCLC; [11]): 1.7 ng/mL
IC50 (SKOV3 (ovarian); SK-OV-3, SKOV3, single agent (combination study), read-out: Single Agent IC50): 11 ng/mL
IC50 (SKOV3 (ovarian); SK-OV-3, SKOV3, indibulin + gemcitabine, concentration of the named drug in the combination, read-out: Combination IC50): 12 ng/mL
SMILES: Nc1ccn([C@@H]2O[C@H](CO)[C@@H](O)C2(F)F)c(=O)n1 [Gemcitabine]
CI (e), coefficient of interaction under optimal experimental concentrations (A549 NSCLC; A549): 0.93
CI (e), coefficient of interaction under optimal experimental concentrations (SKOV3 (ovarian)): 0.65

Competition with 3H-indibulin for tubulin binding [2]: do not compete
IC50 [1, 12]: 0.3 ng/mL
IC50 [1, 6]: 1.27 ng/mL
Combination IC50 [1, 13]: 1.08 ng/mL
Inhibition of 3H-colchicine binding (in words) [3]: no effect
SMILES: CC(=O)O[C@H]1C(=O)[C@@]2(C)[C@H]([C@H](OC(=O)c3ccccc3)[C@]3(O)C[C@H](OC(=O)[C@H](O)[C@@H](NC(=O)c4ccccc4)c4ccccc4)C(C)=C1C3(C)C)[C@]1(OC(C)=O)CO[C@@H]1C[C@@H]2O [Paclitaxel]
Single Agent IC84 [1, 7]: 5.3 ng/mL
Combination IC84 [1, 13]: 2.7 ng/mL
CI (e), coefficient of interaction under optimal experimental concentrations ([1]; MCF7): 0.42

IC50 (PC3 (prostate); PC3, single agent (combination study)): 137000 ng/mL
Combination IC50 (PC3 (prostate); indibulin + prednisolone): 145,659 ng/mL
SMILES: C[C@]12C=CC(=O)C=C1CC[C@@H]1[C@@H]2[C@@H](O)C[C@@]2(C)[C@H]1CC[C@]2(O)C(=O)CO [Prednisolone]
CI (e), coefficient of interaction under optimal experimental concentrations (PC3 (prostate)): 0.91

Competition with 3H-indibulin for tubulin binding [2]: do not compete
Inhibition of 3H-colchicine binding (in words) [3]: no effect
SMILES: CC[C@]1(O)C[C@@H]2CN(CCc3c([nH]c4ccccc34)[C@@](C(=O)OC)(c3cc4c(cc3OC)N(C)[C@H]3[C@@](O)(C(=O)OC)[C@H](OC(C)=O)[C@]5(CC)C=CCN6CC[C@]43[C@@H]65)C2)C1 [Vinblastine]
CI (e), coefficient of interaction under optimal experimental concentrations ([1]; MCF7): 0.50

IC50 [1, 12]: 0.18 ng/mL
IC50 [1, 6]: 0.19 ng/mL
Combination IC50 [1, 14]: 0.08 ng/mL
SMILES: CCC1=C[C@@H]2CN(C1)Cc1c([nH]c3ccccc13)[C@@](C(=O)OC)(c1cc3c(cc1OC)N(C)[C@H]1[C@@](O)(C(=O)OC)[C@H](OC(C)=O)[C@]4(CC)C=CCN5CC[C@]31[C@@H]54)C2 [Vinorelbine]
Single Agent IC60 [1, 7]: 0.26 ng/mL
Combination IC60 [1, 14]: 0.10 ng/mL
